These results are taken from publication PMC4519045 (PLoS ONE, 2015).

A short description of one data set: P800 plasma. The conditions noted are these: human, RT (25 ± 1°C), up to 96 hours.
A further data set can be described thus: citrate-plasma. The conditions noted are these: human, RT (25 ± 1°C).
A short description of a further data set: EDTA plasma. The conditions noted are these: human, RT (25 ± 1°C), up to 96 hours.
A further data set in a line: heparin-plasma. The conditions noted are these: human, RT (25 ± 1°C).
The conditions of data set [1]: in vivo circulation; cited from earlier work.
Data set [2] can be described thus: conventional serum sample. The conditions noted are these: human, RT (25 ± 1°C), up to 96 hours.
In another data set the test system is purified DPP-IV enzyme. The data set is described as follows: 50 mM HEPES buffer (pH7.5). The conditions noted are these: 37°C, up to 48 hours.

Entries after “also recorded” stand apart in the source; their conditions may differ.

Turning to HA/EGTFTSDVSSYLEGQAAKEFIAWLVKGRG, the cleaved bond result in “P800 plasma” was “A8-E9, minor, after 3-day incubation”; in the data set “citrate-plasma”, “A8-E9, major”; in the data set “EDTA plasma”, “A8-E9, major, 1h”; in “heparin-plasma”, “A8-E9, major”.

On to `CC[C@H](C)[C@H](NC(=O)[C@H](CO)NC(=O)[C@H](Cc1ccc(O)cc1)NC(=O)[C@H](CC(=O)O)NC(=O)[C@H](CO)NC(=O)[C@@H](NC(=O)[C@H](Cc1ccccc1)NC(=O)[C@@H](NC(=O)CNC(=O)[C@H](CCC(=O)O)NC(=O)[C@H](C)NC(=O)[C@@H](N)Cc1ccc(O)cc1)[C@@H](C)O)[C@@H](C)CC)C(=O)N[C@@H](C)C(=O)N[C@@H](CCSC)C(=O)N[C@@H](CC(=O)O)C(=O)N[C@@H](CCCCN)C(=O)N[C@H](C(=O)N[C@@H](Cc1c[nH]cn1)C(=O)N[C@@H](CCC(N)=O)C(=O)N[C@@H](CCC(N)=O)C(=O)N[C@@H](CC(=O)O)C(=O)N[C@@H](Cc1ccccc1)C(=O)N[C@H](C(=O)N[C@@H](CC(N)=O)C(=O)N[C@@H](Cc1c[nH]c2ccccc12)C(=O)N[C@@H](CC(C)C)C(=O)N[C@@H](CC(C)C)C(=O)N[C@@H](C)C(=O)N[C@@H](CCC(N)=O)C(=O)N[C@@H](CCCCN)C(=O)NCC(=O)N[C@@H](CCCCN)C(=O)N[C@@H](CCCCN)C(=O)N[C@@H](CC(N)=O)C(=O)N[C@@H](CC(=O)O)C(=O)N[C@@H](Cc1c[nH]c2ccccc12)C(=O)N[C@@H](CCCCN)C(=O)N[C@@H](Cc1c[nH]cn1)C(=O)N[C@@H](CC(N)=O)C(=O)N[C@H](C(=O)N[C@H](C(=O)N[C@@H](CCC(N)=O)C(=O)O)[C@@H](C)O)[C@@H](C)CC)C(C)C)[C@@H](C)CC` [GIP(1–42), glucose-dependent insulinotropic polypeptide], for which, in data set [1], the half-life in circulation is ~5 min.

On to HA/EGTFTSDVSSYLEGQAAKEFIAWLVKGR-NH2, for which the cleaved bond result in the data set “P800 plasma” is given as “A8-E9, minor, after 3-day incubation”; in the data set “citrate-plasma”, “A8-E9, major, 30 minutes”; in “EDTA plasma”, “A8-E9, major, 30 minutes”; in the data set “heparin-plasma” it was “A8-E9, major”; in data set [2], “A8-E9, major, 30 minutes”. Further, the not cleaved result in data set [2] is given as “no G36A-1C”.

Consider HS/QGTFTSDYSKYLDSRRAQDFVQWLMNTKRNRNNIA, for which, in the data set with purified DPP-IV enzyme, the cleaved bond entry is on record as “S2-Q3, first_seen, 24 hours; also recorded: G4-T5, 48 h”.

For “YA/EGTFISDYSIAMDKIHQQDFVNWLLAQKGKKNDWKHNITQ”, the not cleaved entry in the data set “P800 plasma” is “without any GIP degradation fragments detectable during 4-day incubation at RT; t½ > 96 hours”. Moreover, the cleaved bond result in “EDTA plasma” is on record as “A2-E3, major, two hours”; in data set [2] it was “A2-E3, major”.

For the molecule HA/EGTFTSDVSSYLEGQAAKEFIAWLVKGR-OH, the cleaved bond entry is “A8-E9, 30 minutes” in the data set “EDTA plasma” and “A8-E9, 30 minutes; also recorded: G35-R36, 30 minutes” in data set [2].

With HSQGTFTSDYSKYLDSRRAQDFVQWLMNTKRNKNNIA, the not cleaved result in “P800 plasma” is on record as “fragments not detectable during 3-day incubation; full-length OXM stabilized for more than three days”.

On to glucagon-like peptide 1 [GLP-1], for which, in data set [1], the half-life in circulation result is “approximately 2 minutes”.
